Measured values from patent publication US6855836B2, “17-Methylene steroids, process for their production and pharmaceutical compositions that contain these compounds” (Jenapharm GmbH & Co. KG, priority 2000, dated 2005).

How the values were obtained:
[1] = molecular target: T1, Progesterone-receptor (Oryctolagus cuniculus, UniProt P06186); experiment: Progesterone-receptor binding to uterus-cytosol, tracer 3H-ORG 2058; conditions: rabbits, primed, 0-4° C., 18 hours, reference progesterone = 100%
T1 construct: from tissue; host or cells: uterus cytosol of primed rabbits
T1 sequence (P06186 1-930): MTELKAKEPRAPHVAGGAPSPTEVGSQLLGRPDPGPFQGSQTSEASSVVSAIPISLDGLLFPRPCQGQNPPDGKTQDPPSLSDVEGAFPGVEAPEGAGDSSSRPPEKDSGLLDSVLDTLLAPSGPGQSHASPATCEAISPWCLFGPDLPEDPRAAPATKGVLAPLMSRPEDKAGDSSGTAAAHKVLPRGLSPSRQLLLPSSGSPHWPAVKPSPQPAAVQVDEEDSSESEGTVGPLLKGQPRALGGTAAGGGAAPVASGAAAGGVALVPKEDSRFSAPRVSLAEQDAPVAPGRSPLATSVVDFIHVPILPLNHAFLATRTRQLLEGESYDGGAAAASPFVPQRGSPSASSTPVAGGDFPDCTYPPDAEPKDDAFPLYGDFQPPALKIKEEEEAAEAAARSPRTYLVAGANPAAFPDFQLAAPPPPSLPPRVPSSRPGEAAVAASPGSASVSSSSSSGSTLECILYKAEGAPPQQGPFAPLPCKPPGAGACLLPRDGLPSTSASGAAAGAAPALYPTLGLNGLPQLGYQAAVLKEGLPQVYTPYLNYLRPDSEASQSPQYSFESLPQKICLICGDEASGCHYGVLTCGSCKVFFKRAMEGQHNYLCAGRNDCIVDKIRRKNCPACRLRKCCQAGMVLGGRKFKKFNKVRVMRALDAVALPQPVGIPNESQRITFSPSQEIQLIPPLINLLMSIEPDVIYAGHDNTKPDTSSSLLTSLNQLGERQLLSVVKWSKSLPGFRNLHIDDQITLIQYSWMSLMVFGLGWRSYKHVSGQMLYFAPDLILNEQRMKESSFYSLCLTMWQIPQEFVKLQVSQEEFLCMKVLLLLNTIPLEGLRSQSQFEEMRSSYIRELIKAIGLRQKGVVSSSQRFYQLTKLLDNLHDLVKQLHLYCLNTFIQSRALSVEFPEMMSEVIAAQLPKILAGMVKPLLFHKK

[2] = molecular target: T2, 5α-Reductase-Type 2 (Homo sapiens, UniProt P31213); experiment: 5α-Reductase-type 2-activity in genital dermal homogenates; type: biochemical; conditions: optimized conditions at pH 5.5
T2 construct: 5α-Reductase-Type 2-Activity in Genital Dermal Homogenates; from tissue; host or cells: genital dermal (skin) homogenate
T2 sequence (P31213 1-254): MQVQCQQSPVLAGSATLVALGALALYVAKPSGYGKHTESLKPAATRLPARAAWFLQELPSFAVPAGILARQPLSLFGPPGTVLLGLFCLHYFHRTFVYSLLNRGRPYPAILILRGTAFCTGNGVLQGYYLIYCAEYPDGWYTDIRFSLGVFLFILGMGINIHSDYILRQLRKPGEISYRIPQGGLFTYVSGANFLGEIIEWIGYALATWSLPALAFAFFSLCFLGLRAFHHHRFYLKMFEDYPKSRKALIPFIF
Excerpt: (§1) Data for 5α-reductase-type 2-activity in genital dermal homogenates and in vivo data for gestagenic activity are presented by way of example in Tables 1 and 2 below.

[3] = test system: pregnancy maintenance; experiment: Mouse pregnancy maintenance test after s.c. administration (gestagenic activity); type: in vivo
Excerpt: as §1

C[C@]12CC[C@H]3[C@@H](CCC4=C(Cl)C(=O)CC[C@@H]43)[C@@H]1CC/C2=C\Cl [Compound 1, E-17-Chloromethylene-4-chloro-estr-4-en-3-one]
PR, Progesterone = 100% (progesterone-receptor binding) [1]: 60% | IC50 [2]: 250 nM | Pregnancy rate achieved ([3]; 0.1 mg/animal/day s.c.): 0/5 | Pregnancy rate achieved ([3]; 1.0 mg/animal/day s.c.): 5/5
